Measured values taken from patent publication US6403607B1, “Sulfonamide derivatives and drugs containing the same as the active ingredient” (priority 1998, dated 2002).
Values after ≈ are worked out from the molar mass of the structure shown. Like-named read-outs stand apart in the source and are kept apart here.

Columns and labels:
[1] = system: ethanol ulcer in the gland gastric region; assay: Ethanol ulcer; assay type: in vivo; conditions: rats fasted 24 hours, drug oral, 99.5% ethanol 1 ml/rat after one hour, size of ulcer one hour later; for Suppression: dose not given
Procedure: Ethanol Ulcer Rats were fasted for 24 hours and orally administered with a drug. After one hour, 99.5% ethanol (1 ml/rat) was fed through oral administration. After one hour of ethanol administration, the abdomens of the rats were dissected and the size of ulcer in the gland gastric region was measured for each rat.

H/K-ATPase = H/K-ATPase (Oryctolagus cuniculus, UniProt P27112); assay: H/K-ATPase inhibition; assay type: biochemical; conditions: pH 7.4, H/K-ATPase from rabbit gastric mucous membrane
H/K-ATPase, sequence (P27112 whole entry): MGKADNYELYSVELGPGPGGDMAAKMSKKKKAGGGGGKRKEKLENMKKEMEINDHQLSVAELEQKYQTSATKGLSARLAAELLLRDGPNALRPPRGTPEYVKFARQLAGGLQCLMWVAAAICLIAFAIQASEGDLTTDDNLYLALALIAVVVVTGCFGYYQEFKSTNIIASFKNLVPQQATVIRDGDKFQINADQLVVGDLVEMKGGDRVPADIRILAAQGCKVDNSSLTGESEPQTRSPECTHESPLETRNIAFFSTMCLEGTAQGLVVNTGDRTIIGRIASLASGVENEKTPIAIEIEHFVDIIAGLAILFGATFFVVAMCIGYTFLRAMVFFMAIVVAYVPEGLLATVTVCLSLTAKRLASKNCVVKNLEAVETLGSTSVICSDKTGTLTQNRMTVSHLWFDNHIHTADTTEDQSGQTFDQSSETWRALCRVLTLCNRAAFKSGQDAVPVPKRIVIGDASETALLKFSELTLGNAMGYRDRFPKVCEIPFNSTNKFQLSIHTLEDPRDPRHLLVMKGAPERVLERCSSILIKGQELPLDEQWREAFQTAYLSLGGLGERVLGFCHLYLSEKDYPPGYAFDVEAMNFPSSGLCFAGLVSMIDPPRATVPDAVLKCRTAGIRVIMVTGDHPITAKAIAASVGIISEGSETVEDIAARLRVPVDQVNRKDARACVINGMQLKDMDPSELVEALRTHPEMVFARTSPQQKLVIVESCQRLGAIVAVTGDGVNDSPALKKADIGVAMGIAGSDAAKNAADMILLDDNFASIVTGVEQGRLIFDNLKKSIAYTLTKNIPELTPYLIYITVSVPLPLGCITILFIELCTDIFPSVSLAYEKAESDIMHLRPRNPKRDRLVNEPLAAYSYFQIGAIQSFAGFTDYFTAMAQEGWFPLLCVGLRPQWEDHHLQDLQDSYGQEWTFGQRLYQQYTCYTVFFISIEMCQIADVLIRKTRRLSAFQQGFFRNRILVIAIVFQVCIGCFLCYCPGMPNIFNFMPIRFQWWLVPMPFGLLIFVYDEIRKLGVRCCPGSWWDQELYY
H/K-ATPase, sequence (P18597 whole entry partner): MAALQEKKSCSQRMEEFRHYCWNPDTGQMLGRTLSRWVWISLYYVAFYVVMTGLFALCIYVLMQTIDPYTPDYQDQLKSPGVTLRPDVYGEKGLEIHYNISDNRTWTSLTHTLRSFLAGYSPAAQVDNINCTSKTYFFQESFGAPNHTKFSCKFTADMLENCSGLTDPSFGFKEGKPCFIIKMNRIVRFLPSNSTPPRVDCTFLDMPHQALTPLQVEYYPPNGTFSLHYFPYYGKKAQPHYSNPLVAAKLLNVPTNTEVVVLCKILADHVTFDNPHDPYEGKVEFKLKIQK
Procedure: H/K-ATPase Inhibition The inhibitory effect was measured under pH 7.4, by using H/K-ATPase isolated and purified from the rabbit gastric mucous membrane.

Helicobacter pylori = assay: Anti-Helicobacter-pylori action (agar plate dilution MIC); assay type: cell-based; conditions: clinically isolated 10 bacterial strains, agar plate dilution method
Procedure: Anti-Helicobacter-pylori Action
Using clinically isolated 10 bacterial strains, the minimum inhibitory concentration (MIC) was measured according to the agar plate dilution method.

gastric acid secretion = assay: Acid-secretion suppression (pyloric ligation); assay type: in vivo, Rats; conditions: pyloric region ligated, drug to the duodenum, gastric juice after four hours, total acidity by titration; dose not given
Procedure: Acid-secretion Suppression Rats were fasted for 24 hours and the abdomens of the rats were dissected under anesthesia with ether. The pyloric region was ligated and a drug was administered to the duodenum. After four hours, the stomach was removed and the gastric juice was collected to evaluate the acid-secretion suppresssing effects by measuring the total acidity of the gastric juice through titration.

rat red blood cell = assay: Hemolytic action; assay type: cell-based; conditions: 10% rat red blood cell stock, 1% DMSO containing saline, 30 minutes at 37° C., absorbance 540 nm
Procedure: Hemolytic Action […] After incubation for 30 minutes at, 37° C., the mixture was centrifugally separated and the supernatant was obtained. The absorbance (540 nm) of the supernatant was measured. The hemolysis ratio was calculated.

[2] = Helicobacter pylori, read-out: MIC

Row | SMILES | IC50 (H/K-ATPase) | Suppression [1] | Suppression (gastric acid secretion) | further results
1 | NCCCCCN(c1ccccc1NCCOc1ccc(Cl)cc1)S(=O)(=O)c1ccc(Cl)cc1 [Example 13, N-(5-Aminopenthyl)-N-(4-chlorobenzenesulfonyl)-N′-[2-(4-chlorophenoxy)ethyl]-o-phenylenediamine] |  |  | 82% | MIC (Helicobacter pylori): 25 to 50 µg/mL
2 | NCCOCCN(c1ccccc1NCCOc1ccc(Cl)cc1)S(=O)(=O)c1ccc(I)cc1 [Example 45, N-[2-(2-Amino)ethoxyethyl]-N-(4-iodobenzenesulfonyl)-N′-[2-(4-chlorophenoxy)ethyl]-o-phenylenediamine] |  |  | 80% | 
3 | NCCOCCN(c1ccccc1NCCCOc1ccc(Cl)cc1)S(=O)(=O)c1ccc(Cl)cc1 [Example 61, N-[2-(2-Amino)ethoxyethyl]-N-(4-chlorobenzenesulfonyl)-N′-[3-(4-chlorophenoxy)propyl]-o-phenylenediamine] |  |  | 87% | 
4 | CN(CCOc1ccc(Cl)cc1)c1ccccc1N(CCOCCN)S(=O)(=O)c1ccc(Cl)cc1 [Example 68] |  | 94% | 83% | 
5 | O=S(=O)(c1ccc(Cl)cc1)N(CCC1CCCCN1)c1cccnc1NCCNc1ccc(Cl)cc1 (centres unmarked) [Example 95] |  | 99% | 90% | 
6 | NCCOCCN(c1ccccc1N1CCN(c2ccc(Cl)cc2)CC1)S(=O)(=O)c1ccc(Cl)cc1 [Example 131, 2-[4-(4-Chlorophenyl)-1-piperazino]-1-[N-[2-(2-aminoethoxy)ethyl]-N-(4-chlorobenzenesulfonyl)]aminobenzene] |  |  | 89% | 
7 | NCCOCCN(c1ccccc1N1CCCN(c2ccc(Cl)cc2)CC1)S(=O)(=O)c1ccc(Cl)cc1 [Example 134, 2-[4-(4-Chlorophenyl)-1-homopiperazino]-1-[N-[2-(2-aminoethoxy)ethyl]-N-(4-chlorobenzenesulfonyl)]aminobenzene] |  | 98% | 87% | 
8 | NCCOCCN(c1cccnc1N1CCN(c2ccc(Cl)cc2)CC1)S(=O)(=O)c1ccc(Cl)cc1 [Example 137, 2-[4-(4-Chlorophenyl)-1-piperazino]-3-[N-[2-(2-aminoethoxy)ethyl]-N-(4-chlorobenzenesulfonyl)]aminopyridine] |  |  | 76% | 

Continued, in another order:

Row | IC50 (H/K-ATPase) | SMILES | Suppression [1] | Suppression (gastric acid secretion) | further results
9 | 7.4 µM | NCCOCCN(c1ccccc1NCCOc1ccc(Cl)cc1)S(=O)(=O)c1ccc(Cl)cc1.O=C(O)C(O)C(O)C(=O)O [Example 4, N-[2-(2-Aminoethoxy)ethyl]-N-(4-chlorobenzenesulfonyl)-N′-[2-(4-chlorophenoxy)ethyl]-o-phenylenediamine Tartaric Acid Salt] | 85% |  | ED50 ([1]; read-out: ED50): 5.3 mg/kg; MIC (Helicobacter pylori; [2]): 25 to 50 µg/mL
10 | 190 µM | CS(=O)(=O)N(CCOCCN)c1ccccc1NCCOc1ccc(Cl)cc1 [Example 22, N-[2-(2-Amino)ethoxyethyl]-N-(methanesulfonyl)-N′-[2-(4-chloro)phenoxyethyl]-o-phenylenediamine] |  |  | HC50 (rat red blood cell): 55.7 µg/mL
11 | 130 µM | CCCS(=O)(=O)N(CCOCCN)c1ccccc1NCCOc1ccc(Cl)cc1 [Example 24, N-[2-(2-Amino)ethoxyethyl]-N-(1-propanesulfonyl)-N′-[2-(4-chlorophenoxy)ethyl]-o-phenylenediamine] |  |  | HC50 (rat red blood cell): 99.6 µg/mL
12 | 140 µM | CC(C)S(=O)(=O)N(CCOCCN)c1ccccc1NCCOc1ccc(Cl)cc1 [Example 25, N-[2-(2-Amino)ethoxyethyl]-N-(2-propanesulfonyl)-N′-[2-(4-chlorophenoxy)ethyl]-o-phenylenediamine] |  |  | HC50 (rat red blood cell): 120 µg/mL
13 | 1.1 µM | NCCN(c1cccnc1NCCNc1ccc(Cl)cc1)S(=O)(=O)c1ccc(Cl)cc1 [Example 86, 3-[N-(4-Chlorobenzenesulfonyl)-N-(2-aminoethyl)]amino-2-[2-(4-chlorophenyl)aminoethyl]aminopyridine] | 79% |  | 
14 | 11.4 µM | NCCOCCN(c1ccccc1Oc1ccc(Cl)cc1)S(=O)(=O)c1ccc(Cl)cc1 [Example 144, 1-[N-[2-(2-Aminoethoxy)ethyl]-N-(4-chlorobenzenesulfonyl)]-2-(4-chlorophenoxy)aniline] |  |  | MIC (Helicobacter pylori; [2]): 25 to 50 µg/mL (≈ 51.9 to 104 µM)
